Laboratory results: patent US10767179B2, “MicroRNA composition for the treatment of neuroblastoma” (THE BOARD OF REGENTS OF THE UNIVERSITY OF TEXAS SYSTEM, priority 2014, dated 2020)

What was measured:
differentiation markers = assay: Western blots of differentiation markers in multiple neuroblastoma cell lines; assay type: cell-based; conditions: miRNA mimic
Experimental: FIG. 3A-3G. Characterization of the effect of the top 5 neurite-inducing miRNA mimics on cell differentiation and growth in multiple neuroblastoma cell lines. (A-B) Effects of the identified top 5 miRNA mimics on neurite outgrowth. BE(2)-C cells were transfected with 25 nM miRNA mimics or control for 4 days, and relative neurite lengths were quantified as above. Shown are representative cell images analyzed to define neurite and cell body areas (A) and neurite length quantifications (B). (C) Effects of the 5 miRNA mimics on expression of differentiation markers. BE(2)-C cells were transfected with 25 nM of the indicated miRNA mimics or control, and proteins levels were examined after 4 days. (D) Effects of the 5 miRNA mimics on cell proliferation rate. (E) Effect of the 5 miRNAs on neurite outgrowth in multiple cell lines. Cells were transfected with 25 nM miRNA mimics or control, and neurite lengths were quantified as above after 5 days. (F-G) Effects of miR-506-3p (F) and miR-124-3p (G) mimics on expression of differentiation markers in multiple cell lines. *, p<0.05; **, p<0.01; ***, p<0.001; **** , p<0.0001.
(§1) Western Blots. […] Protein concentration was determined using the Pierce BCA assay (Thermo Fisher Scientific). […] Bound antibodies were detected with secondary antibodies conjugated with horseradish peroxidase (HRP) visualized by enhanced chemiluminescent (ECL) substrate (Pierce).

3′UTR of STAT3 = assay: Luciferase Reporter Assay, STAT3 3'UTR; assay type: cell-based, human; conditions: BE(2)-C cells, 25 nM mimic, 72 h
Description: (§2) Luciferase Reporter Assay. The segments of the wildtype 3′ UTRs for CDK4 and STAT3 containing the predicted target sites of miR-506-3p and miR-124-3p were cloned from human genomic DNA. Mutant constructs were generated with the seed target site (GUGCCUU (SEQ ID NO:4)) replaced by CACGGUU (SEQ ID NO:5). The 3′ UTRs were cloned downstream of the firefly luciferase coding sequences into the pmirGLO dual-luciferase reporter (Promega), a vector containing both firefly and Renilla luciferase cDNAs under the control of separate promoter/terminator systems. The firefly luciferase was used as the primary reporter for miRNA regulation of the 3′ UTR. The Renilla luciferase is an internal control for normalization. BE(2)-C cells were co-transfected with luciferase reporters (0.8 ng/μl) and miRNA mimics or control oligonucleotide (oligo) (25 nM). Luciferase activities were measured after 72 h using the Dual-Glo Luciferase Assay System (Promega). Firefly luciferase activity was normalized to Renilla luciferase activity to evaluate the effect of the miRNAs.

BE(2)-C cells [1] = assay: Cell Viability Assay (CellTiter-Glo); assay type: cell-based; conditions: transfected with mimic for 4 days
Experimental: Cell Viability Assay. Cells were plated in 96-well format and treated as specified. After culturing for 120 h, cell viability was determined using the CellTiter-Glo Luminescent Cell Viability Assay (Promega).

3′UTR of CDK4 = assay: Luciferase Reporter Assay, CDK4 3'UTR; assay type: cell-based, human; conditions: BE(2)-C cells, 25 nM mimic, 72 h
Description: as §2

STAT3 = assay: Western blot of endogenous STAT3 protein; assay type: cell-based; conditions: miRNA overexpression, 4 days
Description: FIG. 7A-7F. Validation of CDK4 and STAT3 as direct targets that mediate the differentiation-inducing function of miR-506-3p and miR-124-3p. (A) The predicted interactions between miR-506-3p/miR-124-3p and the target sites in the 3′UTR of STAT3 and CDK4 rnRNAs. The seed sequences are underlined. (SEQ ID NOS: 1, 2, 18, 19, 20, 21) (B-C) Validation of the target sites of miR-506-3p and miR-124-3p in the 3′UTRs of (B) CDK4 and (C) STAT3 by luciferase reporter assay. BE(2)-C cells were co-transfected with the indicated vectors and miRNA mimics or control oligo. After 72 h of transfection, cells were lysed and luciferase activity was measured. […] Cells were transfected as above for 4 days, and protein levels were measured by Western blots. […] Cells were transfected with the indicated oligos, and neurite lengths were measured as above after 4 days transfection. Shown are representative cell images analyzed to define neurites and cell body areas (G) and quantification of neurite length under the indicated treatment conditions (H). **, p<0.01; *** , p<0.001; ****, p<0.0001.
as §1

BE(2)-C cells [2] = assay: Colony Formation Assay; assay type: cell-based; conditions: 25 nM mimic, 14 days
Experimental: Colony Formation Assay. Cells were transfected as specified and cultured overnight. 500 cells were re-plated in 10 cm dishes. After 14 days, colonies were visualized by staining with 1% crystal violet. Colony numbers and sizes were analyzed using Image J (NIH, Bethesda, Md.).

RHOQ = assay: mRNA expression profiling (Illumina microarray); assay type: cell-based; conditions: change of expression induced by miRNA overexpression
Experimental: (§3) Mrna And Mirna Expression. Total RNA was isolated as previously described (Du et al., Mol Cancer Res, 2009, 7(8):1234-43). mRNA expression profiling was done using the Illumina mRNA WG-6 v3 microarray platform. miRNA expression was measured by qRT-PCR using TaqMan microRNA Assays (Life Technologies) with average expression of RNU44 RNA, RNU19 RNA, GAPDH mRNA and 18s rRNA used as controls for normalizing RNA loading.

AHR = assay: mRNA expression profiling (Illumina microarray); assay type: cell-based; conditions: change of expression induced by miRNA overexpression
Experimental: as §3

BDNF = assay: mRNA expression profiling (Illumina microarray); assay type: cell-based; conditions: change of expression induced by miRNA overexpression
Experimental: as §3

BE(2)-C cells [3] = assay: Endogenous miRNA expression by qRT-PCR in differentiated cells; assay type: cell-based; conditions: differentiated BE(2)-C cells
Experimental: as §3

BE(2)-C cells [4] = assay: High-content screen: detection and quantification of neurite outgrowth; assay type: cell-based; conditions: 4 days, dose-dependent, vs 0 nM

“hsa-miR-506-3p: miRNA mimic (Dharmacon), mature sequence UAAGGCACCCUUCUGAGUAGA (SEQ ID NO: 1) (UAAGGCACCCUUCUGAGUAGA(1); as printed in the source, key not given here)” was tested, and the “Expression of differentiation markers in all the tested cell lines” value (differentiation markers) was “dramatically induce expression of differentiation markers”, the “Target site in the 3′UTR of STAT3 by luciferase reporter” value (3′UTR of STAT3) was “validated” and the “Cell viability when reaching plateau” value (BE(2)-C cells [1]) was 6.3±0.3%. For the same substance, the “Target site in the 3′UTR of CDK4 by luciferase reporter” value (3′UTR of CDK4) was “validated”, the “Endogenous STAT3 protein expression level” value (STAT3) was “down-regulate” and the Colony formation (BE(2)-C cells [2]) was “significantly reduce the ability of BE(2)-C to form colonies”. For the same substance, the “Gene expression RHOQ” value (RHOQ) was 1.07, the “Gene expression AHR” value (AHR) was 1.19 and the “Gene expression BDNF” value (BDNF) was 1.04. For the same substance, the “Overexpression of the endogenous miRNA in differentiated cells” value (BE(2)-C cells [3]) was 380.1±48.4 fold and the “Concentration at which induction of neurite outgrowth is significant” value (BE(2)-C cells [4]) was 0.1 nM.
